Experimental data published in PubChem BioAssay (NCI).
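Briefly, cells in 96-well plates were exposed to five compound concentrations for 48 h, and endpoints were estimated by linear interpolation. GI50 = concentration required for 50% inhibition of growth. TGI: total growth inhibition.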

What was measured:
Test in all cases: inhibition of tumour cell growth, NCI panel, 48 h
[1] = system: LOX IMVI melanoma
[2] = system: SK-OV-3 ovarian
[3] = system: K-562 leukemia
[4] = system: EKVX NSCLC
[5] = system: OVCAR-4 ovarian
[6] = system: CAKI-1 renal
[7] = system: SK-MEL-2 melanoma
[8] = system: COLO 205 colon
[9] = system: HCC-2998 colon
[10] = system: A549 NSCLC
[11] = system: SN12C renal
[12] = system: RPMI-8226 leukemia
[13] = system: HCT-116 colon
[14] = system: HS 578T breast
[15] = system: OVCAR-3 ovarian
[16] = system: SNB-75 CNS
[17] = system: HCT-15 colon
[18] = system: NCI/ADR-RES ovarian
[19] = system: UO-31 renal
[20] = system: DU-145 prostate
[21] = system: SF-268 CNS
[22] = system: SW-620 colon
[23] = system: KM12 colon
[24] = system: SF-295 CNS
[25] = system: ACHN renal
[26] = system: M14 melanoma
[27] = system: T-47D breast
[28] = system: IGROV1 ovarian
[29] = system: MOLT-4 leukemia
[30] = system: NCI-H460 lung
[31] = system: MDA-MB-231 breast
[32] = system: UACC-257 melanoma
[33] = system: MDA-MB-435
[34] = system: U251 CNS
[35] = system: TK-10 renal
[36] = system: SK-MEL-5 melanoma
[37] = system: 786-0 renal
[38] = system: NCI-H23 lung
[39] = system: SNB-19 CNS
[40] = system: UACC-62 melanoma
[41] = system: SR leukemia
[42] = system: HOP-62 NSCLC
[43] = system: BT-549 breast
[44] = system: SK-MEL-28 melanoma
[45] = system: MALME-3M melanoma
[46] = system: SF-539 CNS
[47] = system: NCI-H226 lung
[48] = system: RXF 393 renal
[49] = system: CCRF-CEM leukemia
[50] = system: OVCAR-8 ovarian
[51] = system: OVCAR-5 ovarian
[52] = system: HT29 colon
[53] = system: MCF7 breast
[54] = system: PC-3 prostate
[55] = system: HL-60(TB) leukemia
[56] = system: NCI-H522 lung
[57] = system: HOP-92 NSCLC
[58] = system: A498 renal

With `CCSc1ccc2c(c1)N(CCCN1CCN(C)CC1)c1ccccc1S2` the GI50 [1] was 1.67 µM, the TGI [1] was 3.16 µM and the GI50 [2] was 10.4 µM. The TGI [2] was 24 µM, the GI50 [3] was 2.39 µM and the TGI [3] was greater than 100 µM. It also gave a GI50 [4] of 6.04 µM, a TGI [4] of 22.6 µM and a GI50 [5] of 3.63 µM. It also gave a TGI [5] of 12.3 µM, a GI50 [6] of 1.75 µM and a TGI [6] of 4.19 µM. For the same compound, the GI50 [7] was 3.25 µM, the TGI [7] was 8.49 µM and the GI50 [8] was 1.76 µM. For the same compound, the TGI [8] was 3.37 µM, the GI50 [9] was 1.7 µM and the TGI [9] was 3.28 µM. It also gave a GI50 [10] of 3.21 µM, a TGI [10] of 10.5 µM and a GI50 [11] of 4.54 µM. It also gave a TGI [11] of 18.4 µM, a GI50 [12] of 2.46 µM and a TGI [12] of 6.96 µM. It also gave a GI50 [13] of 2.04 µM, a TGI [13] of 4.4 µM and a GI50 [14] of 2 µM. It also gave a TGI [14] of 5.56 µM, a GI50 [15] of 2.48 µM and a TGI [15] of 7.12 µM. The GI50 [16] was 1.79 µM, the TGI [16] was 5.5 µM and the GI50 [17] was 2.06 µM. For the same compound, the TGI [17] was 4.98 µM, the GI50 [18] was 3.68 µM and the TGI [18] was 16.8 µM. For the same compound, the GI50 [19] was 2.1 µM, the TGI [19] was 10.1 µM and the GI50 [20] was 3.82 µM. It also gave a TGI [20] of 14.2 µM, a GI50 [21] of 3.96 µM and a TGI [21] of 16.9 µM. It also gave a GI50 [22] of 1.88 µM, a TGI [22] of 3.65 µM and a GI50 [23] of 1.87 µM. It also gave a TGI [23] of 3.56 µM, a GI50 [24] of 2.2 µM and a TGI [24] of 5.97 µM. It also gave a GI50 [25] of 2.49 µM, a TGI [25] of 6.83 µM and a GI50 [26] of 1.88 µM. The TGI [26] was 3.67 µM, the GI50 [27] was 2.17 µM and the TGI [27] was 5.79 µM. The GI50 [28] was 2.19 µM, the TGI [28] was 5.41 µM and the GI50 [29] was 2.64 µM. For the same compound, the TGI [29] was 6.53 µM, the GI50 [30] was 1.87 µM and the TGI [30] was 3.53 µM. For the same compound, the GI50 [31] was 2 µM, the TGI [31] was 4.95 µM and the GI50 [32] was 1.81 µM. The TGI [32] was 3.48 µM, the GI50 [33] was 1.72 µM and the TGI [33] was 3.47 µM. The GI50 [34] was 2.05 µM, the TGI [34] was 4.64 µM and the GI50 [35] was 1.73 µM. It also gave a TGI [35] of 3.27 µM, a GI50 [36] of 1.73 µM and a TGI [36] of 3.16 µM. The GI50 [37] was 2.61 µM, the TGI [37] was 7.6 µM and the GI50 [38] was 6.58 µM. For the same compound, the TGI [38] was 21.3 µM, the GI50 [39] was 3.16 µM and the TGI [39] was 12 µM. The GI50 [40] was 1.67 µM, the TGI [40] was 3.34 µM and the GI50 [41] was 2.71 µM. It also gave a TGI [41] of 8.65 µM, a GI50 [42] of 2.84 µM and a TGI [42] of 8.15 µM. For the same compound, the GI50 [43] was 4.75 µM, the TGI [43] was 18.9 µM and the GI50 [44] was 1.73 µM. For the same compound, the TGI [44] was 3.27 µM, the GI50 [45] was 1.58 µM and the TGI [45] was 3.35 µM. It also gave a GI50 [46] of 1.83 µM, a TGI [46] of 3.76 µM and a GI50 [47] of 7.17 µM. The TGI [47] was 27.5 µM, the GI50 [48] was 2.82 µM and the TGI [48] was 8.88 µM. It also gave a GI50 [49] of 2.56 µM, a TGI [49] of 7.1 µM and a GI50 [50] of 4.39 µM. For the same compound, the TGI [50] was 10.9 µM, the GI50 [51] was 2.19 µM and the TGI [51] was 6.44 µM. The GI50 [52] was 1.81 µM, the TGI [52] was 3.44 µM and the GI50 [53] was 1.79 µM. The TGI [53] was 3.43 µM, the GI50 [54] was 2.74 µM and the TGI [54] was 9.64 µM. The GI50 [55] was 1.83 µM, the TGI [55] was 4.61 µM and the GI50 [56] was 1.7 µM. The TGI [56] was 3.5 µM, the GI50 [57] was 1.85 µM and the TGI [57] was 7.06 µM. For the same compound, the GI50 [58] was 1.83 µM and the TGI [58] was 10.2 µM.
